Measurements taken from PMC11748363, “Antimicrobial and Antiproliferative Properties of 2‐Phenyl‐N‐(Pyridin‐2‐yl)acetamides” (Chemical Biology & Drug Design, 2025).
pIC50: −log10 of the molar value. ≈ marks a conversion by molar mass, not a printed value. Where two headings read alike, the source gives them in different places.

Tests used:
[1] = system: Candida parapsilosis CCM 8260, ATCC 22019; assay: Antifungal microdilution broth MIC, CP; conditions: Lodderomyces parapsilosis
[2] = system: Trichophyton interdigitale CCM 8377, ATCC 9533; assay: Antifungal microdilution broth MIC, TI; conditions: Trichophyton interdigitale
[3] = system: Staphylococcus aureus subsp. aureus CCM 4750, ATCC 43300 (MRSA); assay: Antibacterial microdilution broth MIC, MRSA; type: cell-based; conditions: Staphylococcus aureus
[4] = system: Enterococcus faecalis CCM 4224, ATCC 29212; assay: Antibacterial microdilution broth MIC, EF; type: cell-based
[5] = system: M. kansasii CNCTC My 235/80; assay: Microplate Alamar Blue Assay MIC, M. kansasii; type: cell-based; conditions: Mycobacterium kansasii
[6] = system: Mycobacterium tuberculosis H37Ra; assay: Antimycobacterial microdilution broth MIC (resazurin), Mtb H37Ra; type: cell-based; conditions: for MIC: Mycobacterium tuberculosis, H37RA, read-out: MIC Mtb H37Ra; for SI (selectivity index): SI = HepG2 IC50 (μM)/MIC MtbH37Ra (μM), calculated for compounds with MIC ≤ 31.25 μg/mL
[7] = system: Candida tropicalis CCM 8264, ATCC 750; assay: Antifungal microdilution broth MIC, CT
panel of fungi = assay: Antifungal screening, whole panel; type: cell-based; conditions: whole fungal panel
Description: The antifungal activity was evaluated by
spectrophotometric visual detection** spectrophotometric detection**
Candida tropicalis 1 1 2 >16
Aspergillus fumigatus 4 4 0.25 1
Aspergillus flavus CCM 4 4 2 >16
interdigitale CCM 1 1 1 >16
control. […] Measured on a […]

[8] = system: Aspergillus flavus CCM 8363; assay: Antifungal microdilution broth MIC, AFla
[9] = system: Aspergillus fumigatus ATCC 204305; assay: Antifungal microdilution broth MIC, AF
[10] = system: Staphylococcus epidermidis CCM 4418, ATCC 12228; assay: Antibacterial microdilution broth MIC, SE; type: cell-based
[11] = system: M. avium ssp. avium CNCTC My 80/72; assay: Microplate Alamar Blue Assay MIC, M. avium; type: cell-based; conditions: for MIC: Mycobacterium avium
[12] = system: Mycolicibacterium smegmatis DSM 43465; assay: Antimycobacterial microdilution broth MIC (resazurin), M. smegmatis; type: cell-based; conditions: DSM43465, read-out: MIC M. smegmatis
panel of bacteria = assay: Antibacterial screening, whole panel; type: cell-based; conditions: whole bacterial panel
[13] = system: Candida krusei CCM 8271, ATCC 6258; assay: Antifungal microdilution broth MIC, CK; conditions: Pichia kudriavzevii
[14] = system: Mycolicibacterium aurum DSM 43999; assay: Antimycobacterial microdilution broth MIC (resazurin), M. aurum; type: cell-based; conditions: DSM43999, read-out: MIC M. aurum
HepG2 cell line = assay: Cytotoxicity CellTiter 96, HepG2; type: cell-based, human; conditions: Homo sapiens, HepG2, 24 h, 24 h incubation; ^c compound precipitated in the testing medium; ^d over the limit of tested concentrations
[15] = system: Staphylococcus aureus CCM 4223, ATCC 29213; assay: Antibacterial microdilution broth MIC, SA; type: cell-based; conditions: Staphylococcus aureus
[16] = system: Escherichia coli CCM 3954, ATCC 25922; assay: Antibacterial microdilution broth MIC, EC; type: cell-based
[17] = system: Acinetobacter baumannii DSM 30007, ATCC 19606; assay: Antibacterial microdilution broth MIC, ACI; type: cell-based
[18] = system: Lichtheimia corymbifera CCM 8077; assay: Antifungal microdilution broth MIC, LC
[19] = system: Mycobacterium tuberculosis H37Rv; assay: Microplate Alamar Blue Assay MIC, Mtb H37Rv; type: cell-based; conditions: Mycobacterium tuberculosis, H37RV
[20] = system: Klebsiella pneumoniae CCM 4415, ATCC 10031; assay: Antibacterial microdilution broth MIC, KP
[21] = system: Pseudomonas aeruginosa CCM 3955, ATCC 27853; assay: Antibacterial microdilution broth MIC, PA; type: cell-based
[22] = system: Candida albicans CCM 8320, ATCC 24433; assay: Antifungal microdilution broth MIC, CA
[23] = CCM8363, 24 h, read-out: MIC AFla 24h
[24] = CCM8363, 48 h, read-out: MIC AFla 48h
[25] = ATCC204305, 24 h, read-out: MIC AF 24h
[26] = ATCC204305, 48 h, read-out: MIC AF 48h
[27] = CCM8077, 24 h, read-out: MIC LC 24h
[28] = CCM8077, 48 h, read-out: MIC LC 48h

`O=C(Cc1ccc(Cl)cc1)Nc1ccc(Cl)cn1` [Compound 20] gave an MIC ([1]; 24 h, read-out: MIC CP 24h) greater than 500 µM, an MIC ([1]; 48 h, read-out: MIC CP 48h) greater than 500 µM and an MIC ([2]; 72 h, read-out: MIC TI 72h) greater than 500 µM. For the same molecule, the MIC ([2]; 120 h, read-out: MIC TI 120h) was greater than 500 µM, the MIC ([3]; 24 h, read-out: MIC MRSA 24h) was greater than 500 µM and the MIC ([3]; 48 h, read-out: MIC MRSA 48h) was greater than 500 µM. For the same molecule, the MIC ([4]; 24 h, read-out: MIC EF 24h) was greater than 500 µM, the MIC ([4]; 48 h, read-out: MIC EF 48h) was greater than 500 µM and the MIC [5] was greater than 100 µg/mL. For the same molecule, the MIC ([6]; Calculated from MIC (μg/mL)) was 27.8 µM, the MIC [6] was 7.81 µg/mL and the “SI (selectivity index)” value [6] was 1.7. The MIC ([7]; 24 h, read-out: MIC CT 24h) was greater than 500 µM, the MIC ([7]; 48 h, read-out: MIC CT 48h) was greater than 500 µM and the Antifungal activity (panel of fungi) was “None”. The MIC [8, 23] was greater than 500 µM, the MIC [8, 24] was greater than 500 µM and the MIC [9, 25] was greater than 500 µM. The MIC [9, 26] was greater than 500 µM, the MIC ([10]; 24 h, read-out: MIC SE 24h) was greater than 500 µM and the MIC ([10]; 48 h, read-out: MIC SE 48h) was greater than 500 µM. For the same molecule, the MIC [11] was greater than 100 µg/mL, the MIC [12] was 500 µg/mL (≈ 1780 µM) and the Antibacterial activity (panel of bacteria) was “None”. For the same molecule, the MIC ([13]; 24 h, read-out: MIC CK 24h) was greater than 500 µM, the MIC ([13]; 48 h, read-out: MIC CK 48h) was greater than 500 µM and the MIC [14] was 500 µg/mL (≈ 1780 µM). It also gave a pIC50 (HepG2 cell line) of 4.31, an MIC ([15]; 24 h, read-out: MIC SA 24h) greater than 500 µM and an MIC ([15]; 48 h, read-out: MIC SA 48h) greater than 500 µM. The MIC ([16]; 24 h, read-out: MIC EC 24h) was greater than 500 µM, the MIC ([16]; 48 h, read-out: MIC EC 48h) was greater than 500 µM and the MIC ([17]; 24 h, read-out: MIC ACI 24h) was greater than 500 µM. The MIC ([17]; 48 h, read-out: MIC ACI 48h) was greater than 500 µM, the MIC [18, 27] was greater than 500 µM and the MIC [18, 28] was greater than 500 µM. The MIC [19] was 6.25 µg/mL (≈ 22.2 µM), the “MIC KP 24h” value [20] was greater than 500 µM and the “MIC KP 48h” value [20] was greater than 500 µM. For the same molecule, the MIC ([21]; 24 h, read-out: MIC PA 24h) was greater than 500 µM, the MIC ([21]; 48 h, read-out: MIC PA 48h) was greater than 500 µM and the MIC ([22]; 24 h, read-out: MIC CA 24h) was greater than 500 µM. For the same molecule, the MIC ([22]; 48 h, read-out: MIC CA 48h) was greater than 500 µM.

`O=C(Cc1ccc(C(F)(F)F)cc1)Nc1cccc(Cl)n1` [Compound 30] showed an MIC ([1]; 24 h, read-out: MIC CP 24h) greater than 500 µM, an MIC ([1]; 48 h, read-out: MIC CP 48h) greater than 500 µM and an MIC ([2]; 72 h, read-out: MIC TI 72h) of 500 µM (≈ 157 µg/mL). For the same molecule, the MIC ([2]; 120 h, read-out: MIC TI 120h) was 500 µM (≈ 157 µg/mL), the MIC ([3]; 24 h, read-out: MIC MRSA 24h) was greater than 500 µM and the MIC ([3]; 48 h, read-out: MIC MRSA 48h) was greater than 500 µM. The MIC ([4]; 24 h, read-out: MIC EF 24h) was greater than 500 µM, the MIC ([4]; 48 h, read-out: MIC EF 48h) was greater than 500 µM and the MIC [5] was greater than 100 µg/mL. The MIC ([6]; Calculated from MIC (μg/mL)) was 24.8 µM, the MIC [6] was 7.81 µg/mL and the “SI (selectivity index)” value [6] was 3.7. The MIC ([7]; 24 h, read-out: MIC CT 24h) was greater than 500 µM, the MIC ([7]; 48 h, read-out: MIC CT 48h) was greater than 500 µM and the Antifungal activity (panel of fungi) was “None”. It also gave an MIC [8, 23] greater than 500 µM, an MIC [8, 24] greater than 500 µM and an MIC [9, 25] greater than 500 µM. The MIC [9, 26] was greater than 500 µM, the MIC ([10]; 24 h, read-out: MIC SE 24h) was greater than 500 µM and the MIC ([10]; 48 h, read-out: MIC SE 48h) was greater than 500 µM. The “MIC M. avium” value [11] was “active”, the MIC [11] was 6.25 µg/mL (≈ 19.9 µM) and the MIC [12] was greater than 500 µg/mL. For the same molecule, the Antibacterial activity (panel of bacteria) was “None”, the MIC ([13]; 24 h, read-out: MIC CK 24h) was greater than 500 µM and the MIC ([13]; 48 h, read-out: MIC CK 48h) was greater than 500 µM. For the same molecule, the MIC [14] was greater than 500 µg/mL, the pIC50 (HepG2 cell line) was 4.03 and the MIC ([15]; 24 h, read-out: MIC SA 24h) was greater than 500 µM. For the same molecule, the MIC ([15]; 48 h, read-out: MIC SA 48h) was greater than 500 µM, the MIC ([16]; 24 h, read-out: MIC EC 24h) was greater than 500 µM and the MIC ([16]; 48 h, read-out: MIC EC 48h) was greater than 500 µM. The MIC ([17]; 24 h, read-out: MIC ACI 24h) was greater than 500 µM, the MIC ([17]; 48 h, read-out: MIC ACI 48h) was greater than 500 µM and the MIC [18, 27] was greater than 500 µM. The MIC [18, 28] was greater than 500 µM, the MIC [19] was 6.25 µg/mL (≈ 19.9 µM) and the “MIC KP 24h” value [20] was greater than 500 µM. For the same molecule, the “MIC KP 48h” value [20] was greater than 500 µM, the MIC ([21]; 24 h, read-out: MIC PA 24h) was greater than 500 µM and the MIC ([21]; 48 h, read-out: MIC PA 48h) was greater than 500 µM. It also gave an MIC ([22]; 24 h, read-out: MIC CA 24h) greater than 500 µM and an MIC ([22]; 48 h, read-out: MIC CA 48h) greater than 500 µM.
